Data reported in US20260174778A1, “SULFONAMIDE COMPOUND, AND PREPARATION METHOD THEREFOR AND USE THEREOF” (SHANGHAI HENLIUS BIOTECH, INC., priority 2023, published 2026).

Test system: acetylation level of H3K23 in ZR-75-1 cells
Experiment: Effect on histone acetilation in ER-positive breast cancer cells (Western blotting)
Format: cell-based, human
Details: 5 days of incubation, from 5 μM, Western blot (FIG. 1)
Protocol: Test Example 4: Assay for Effects of Compounds on Histone Acetylation in Estrogen Receptor-Positive Breast Cancer Cells
Assay Method: Western Blotting Method (Immunoblotting Assay)
The effects of the test compounds on the acetylation level of H3K23 in ZR-75-1 cells (Nanjing Cobioer, CBP60402) were assayed. • 1. On day 1, the cells were plated at 400,000 cells/well (2 mL/well) and cultured overnight in an incubator at 37° C. with 5% CO2. • 2. On day 2, compounds were added starting at 5 μM, with a 10-fold serial dilution across a total of 3 concentration gradients, and DMSO was added to the negative control wells. • 3. On day 6, after 5 days of incubation with compounds, protein samples were collected: An ice box, pre-cooled PBS (4° C.), a cell lysis buffer RIPA (Beyotime, P0013B), and a protease inhibitor (100x) (Thermo Scientific™, 87786) were prepared. Then, 120 μL of the cell lysis buffer was added to each well. The mixture was placed on ice for about 15 min. […] Protein quantification by BCA method (Beyotime, P0009) • Standards (8 concentrations) were prepared, and the samples and the standards were added to a 96-well plate. […] The absorbance was then measured using a microplate reader. […]
The next day, the PVDF membrane was taken out and washed (8 min×3) with TBST (with 0.5% Tween 20). […] After the washing, a luminescence solution (Tanon, 180-506) was added for exposure. […]

Row | Compound | acetylation level of H3K23
1 | COc1ccc2c(c1S(=O)(=O)Nc1noc3cc(Cn4cccn4)c(F)c(OC)c13)OCCO2 [Compound 28, N-(6-((1H-Pyrazol-1-yl)methyl)-5-fluoro-4-methoxybenzo[d]isoxazol-3-yl)-6-methoxy-2,3-dihydrobenzo[b][1,4]dioxine-5-sulfonamide] | significantly reduce the acetylation level of H3K23
2 | COc1ccccc1S(=O)(=O)Nc1noc2cc(Cn3cccn3)cc(OC)c12 [PF-8144, reference compound] | significantly reduce the acetylation level of H3K23
